The record followed here is patent US8598157B2, “5-alkynyl-pyridines” (Boehringer Ingelheim International GmbH, priority 2011, dated 2013).

Assay [1] concerns U87 cells. In words: U87 cell assay (antiproliferative/cytotoxicity). The assay is classed as cell-based. The conditions noted are these: U-87MG human glioblastoma cells. A digest of the protocol:
(§1)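 Seed cells, incubate overnight 37 °C CO2; add cpds (final 10 μM, 1:3 serial, 10 steps, duplicates); incubate 5-6 d; alamarBlue 8 h 37 °C; fluorescence ex 530-560/em 590 nm; blank-subtracted EC50.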

Assay [2] has as its system BT474 cells. In words: alamarBlue BT474 cell assay (antiproliferative/cytotoxicity). It counts as cell-based. The conditions noted are these: BT-474 human breast cancer cell line. In a few lines: as §1
Background: The colour change of resazurin is a common sign of viable cells or microbes.

In assay [3] the target is PI3Kalpha (Homo sapiens (Human), UniProt P42336). In words: Inhibition of PI3Kalpha-induced PIP-2 phosphorylation (filter-binding assay). The conditions noted are these: 33P-ATP, p85alpha/His-p110alpha, read-out: IC50 PI3Kα. The assay is classed as biochemical. A digest of the protocol:
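Radiometric filter-binding assay: PI3Kα (25 ng/well) preincubated 20 min at room temperature with compound and PIP2-containing lipid vesicles plus phosphotyrosine PDGFRβ peptide. Reaction started with cold ATP (1 μM final) and [33P]-ATP and run 120 min at room temperature; filter-captured radioactivity counted, IC50 from duplicate dilution series.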

Assay [4] has as its system MB453 cells. The assay can be described thus: alamarBlue MB453 cell assay (antiproliferative/cytotoxicity). The conditions noted are these: Homo sapiens; MDA MB 453 breast cancer cell line. It counts as cell-based. A digest of the protocol: as §1
The subject of assay [5] is H460 cells. In words: alamarBlue H460 cell assay (antiproliferative/cytotoxicity). The conditions noted are these: NCI-H460; H460 human lung carcinoma cells. It counts as cell-based. In a few lines:
as §1

The subject of assay [6] is MCF7 cells. In words: alamarBlue MCF7 cell assay (antiproliferative/cytotoxicity). The assay is classed as cell-based. The conditions noted are these: MCF7 human breast cancer cell line. A digest of the protocol: as §1

Sequence of PI3Kalpha (P42336 whole entry): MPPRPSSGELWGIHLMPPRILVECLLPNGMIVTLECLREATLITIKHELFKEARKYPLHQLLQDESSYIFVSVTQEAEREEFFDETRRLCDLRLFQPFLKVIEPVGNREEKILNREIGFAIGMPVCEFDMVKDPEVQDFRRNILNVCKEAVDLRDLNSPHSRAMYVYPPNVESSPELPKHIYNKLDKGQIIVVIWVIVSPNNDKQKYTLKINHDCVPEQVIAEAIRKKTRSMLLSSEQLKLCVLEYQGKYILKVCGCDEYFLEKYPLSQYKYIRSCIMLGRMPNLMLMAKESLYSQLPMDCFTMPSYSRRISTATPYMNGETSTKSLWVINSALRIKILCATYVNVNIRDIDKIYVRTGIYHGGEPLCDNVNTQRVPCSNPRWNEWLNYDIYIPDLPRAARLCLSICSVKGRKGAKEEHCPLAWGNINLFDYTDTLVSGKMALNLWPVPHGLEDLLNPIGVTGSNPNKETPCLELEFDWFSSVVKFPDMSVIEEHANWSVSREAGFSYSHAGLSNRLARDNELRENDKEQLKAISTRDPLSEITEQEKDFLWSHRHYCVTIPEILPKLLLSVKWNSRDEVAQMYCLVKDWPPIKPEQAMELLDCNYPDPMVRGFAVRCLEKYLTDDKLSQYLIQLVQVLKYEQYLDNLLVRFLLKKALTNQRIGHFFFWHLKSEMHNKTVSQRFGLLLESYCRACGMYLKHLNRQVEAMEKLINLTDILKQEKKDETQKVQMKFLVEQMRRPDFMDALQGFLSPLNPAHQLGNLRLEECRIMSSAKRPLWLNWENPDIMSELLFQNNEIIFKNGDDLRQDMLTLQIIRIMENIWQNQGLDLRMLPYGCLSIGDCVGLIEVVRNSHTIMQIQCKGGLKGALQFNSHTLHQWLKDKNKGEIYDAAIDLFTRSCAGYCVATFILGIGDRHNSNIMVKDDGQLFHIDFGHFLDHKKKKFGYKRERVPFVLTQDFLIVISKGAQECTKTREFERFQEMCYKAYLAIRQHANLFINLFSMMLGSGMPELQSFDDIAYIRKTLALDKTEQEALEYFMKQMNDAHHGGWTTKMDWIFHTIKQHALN

With `Cc1ncc(C#Cc2c(C)ncnc2N2CCOCC2)cc1NS(=O)(=O)c1cn(C)c(C)n1` [Example I-55, 1,2-Dimethyl-1H-imidazole-4-sulfonic acid [2-methyl-5-(4-methyl-6-morpholin-4-yl-pyrimidin-5-ylethynyl)-pyridin-3-yl]-amide], the EC50 (in general, the midpoint of the concentration-response curve) turned out to be 1.98 µM in assay [1]; 1.55 µM in assay [2]; 1.68 µM in assay [4]; 1.18 µM in assay [5]; 0.208 µM in assay [6]. Besides, in assay [3], the IC50 (in general, the midpoint of a concentration-inhibition curve) was 0.001 µM.
In the case of `Cc1ncc(C#Cc2c(C)ncnc2N2CCOCC2)cc1NS(=O)(=O)c1ccnn1C` [Example I-56, 2-Methyl-2H-pyrazole-3-sulfonic acid [2-methyl-5-(4-methyl-6-morpholin-4-yl-pyrimidin-5-ylethynyl)-pyridin-3-yl]-amide], the EC50 in assay [1] worked out at 0.779 µM; in assay [2], 0.487 µM; in assay [4], 0.239 µM; in assay [5], 0.756 µM; in assay [6], 0.125 µM. The IC50 in assay [3] was found to be 0.00044 µM.
On to `COCCN1CCN(c2ncnc(C)c2C#Cc2cnc(C)c(NS(=O)(=O)c3ccccc3)c2)CC1` [Example I-57, N-(5-{4-[4-(2-Methoxy-ethyl)-piperazin-1-yl]-6-methyl-pyrimidin-5-ylethynyl}-2-methyl-pyridin-3-yl)-benzenesulfonamide], for which the EC50 in assay [1] is 0.338 µM; in assay [2], 1.3 µM; in assay [4] it was 0.443 µM; in assay [5], 0.082 µM; in assay [6], 0.002 µM. In addition, in assay [3], the IC50 was 0.00083 µM.
For `Cc1ncc(C#Cc2c(C)ncnc2N2CCN(C3CC3)CC2)cc1NS(=O)(=O)c1ccccc1` [Example I-58, N-{5-[4-(4-Cyclopropyl-piperazin-1-yl)-6-methyl-pyrimidin-5-ylethynyl]-2-methyl-pyridin-3-yl}-benzenesulfonamide], the EC50 was found to be 25 µM in assay [1]; 3 µM in assay [2]; 4.64 µM in assay [4]; 2.99 µM in assay [5]; 1.3 µM in assay [6]. The IC50 in assay [3] was 0.016 µM.
Take `Cc1ncc(C#Cc2c(C)ncnc2N2CCN(C)C(=O)C2)cc1NS(=O)(=O)c1ccccc1` [Example I-60, N-{2-Methyl-5-[4-methyl-6-(4-methyl-3-oxo-piperazin-1-yl)-pyrimidin-5-ylethynyl]-pyridin-3-yl}-benzenesulfonamide]: the EC50 is 0.945 µM in assay [1]; 1.54 µM in assay [2]; 0.618 µM in assay [4]; 1.25 µM in assay [5]; 0.103 µM in assay [6]. For the same compound, the IC50 in assay [3] came to 0.002 µM.
Regarding `CC(=O)N1CCN(c2ncnc(C)c2C#Cc2cnc(C)c(NS(=O)(=O)c3ccccc3)c2)CC1` [Example I-61, N-{5-[4-(4-Acetyl-piperazin-1-yl)-6-methyl-pyrimidin-5-ylethynyl]-2-methyl-pyridin-3-yl}-benzenesulfonamide], the EC50 in assay [1] came to 0.631 µM; in assay [2], 1.12 µM; in assay [4], 0.262 µM; in assay [5], 0.791 µM; in assay [6], 0.039 µM. The IC50 in assay [3] is 0.002 µM.
`CC(=O)N1CCCN(c2ncnc(C)c2C#Cc2cnc(C)c(NS(=O)(=O)c3ccccc3)c2)CC1` [Example I-62, N-{5-[4-(4-Acetyl-[1,4]diazepan-1-yl)-6-methyl-pyrimidin-5-ylethynyl]-2-methyl-pyridin-3-yl}-benzenesulfonamide]: the 50% effective concentration (EC50) stood at 1.29 µM in assay [1]; 4.05 µM in assay [2]; 0.969 µM in assay [4]; 1.74 µM in assay [5]; 0.709 µM in assay [6]. Besides, in assay [3], the IC50 was 0.003 µM.
`Cc1ncc(C#Cc2c(C)ncnc2N2CCCCC2)cc1NS(=O)(=O)c1ccccc1` [Example I-63, N-[2-Methyl-5-(4-methyl-6-piperidin-1-yl-pyrimidin-5-ylethynyl)-pyridin-3-yl]-benzenesulfonamide]: the EC50 stood at 1.3 µM in assay [1]; 4.32 µM in assay [2]; 1.33 µM in assay [4]; 0.308 µM in assay [5]; 0.126 µM in assay [6]. Further, in assay [3], the IC50 came to 0.003 µM.
`Cc1ncc(C#Cc2c(C)ncnc2N2CCOCC2)cc1NS(=O)(=O)N1CCCC1` [Example I-64, Pyrrolidine-1-sulfonic acid [2-methyl-5-(4-methyl-6-morpholin-4-yl-pyrimidin-5-ylethynyl)-pyridin-3-yl]-amide]: the EC50 in assay [1] was 0.773 µM; in assay [2], 5.95 µM; in assay [4], 0.584 µM; in assay [5], 0.071 µM; in assay [6], 0.059 µM. In addition, in assay [3], the IC50 was found to be 0.002 µM.
`CCc1ncnc(N2CCN(C)CC2)c1C#Cc1cnc(C)c(NS(=O)(=O)c2ccc(F)cc2)c1` [Example I-65, N-{5-[4-Ethyl-6-(4-methyl-piperazin-1-yl)-pyrimidin-5-ylethynyl]-2-methyl-pyridin-3-yl}-4-fluoro-benzenesulfonamide]: the EC50 in assay [1] is 0.524 µM; in assay [2], 0.281 µM; in assay [4], 0.23 µM; in assay [5], 0.168 µM; in assay [6], 0.028 µM. Besides, in assay [3], the IC50 came to 0.00089 µM.
In the case of `CCc1ncnc(N2CCC(O)CC2)c1C#Cc1cnc(C)c(NS(=O)(=O)c2ccc(F)cc2)c1` [Example I-66, N-{5-[4-Ethyl-6-(4-hydroxy-piperidin-1-yl)-pyrimidin-5-ylethynyl]-2-methyl-pyridin-3-yl}-4-fluoro-benzenesulfonamide], the EC50 in assay [1] came to 0.54 µM; in assay [2], 0.091 µM; in assay [4], 0.175 µM; in assay [5], 0.444 µM; in assay [6], 0.145 µM. Also, the IC50 in assay [3] is 0.00048 µM.
Turning to `CCc1ncnc(N2CCN(S(C)(=O)=O)CC2)c1C#Cc1cnc(C)c(NS(=O)(=O)c2ccc(F)cc2)c1` [Example I-67, N-{5-[4-Ethyl-6-(4-methanesulfonyl-piperazin-l-yl)-pyrimidin-5-ylethynyl]-2-methyl-pyridin-3-yl}-4-fluoro-benzenesulfonamide], the EC50 was 0.471 µM in assay [1]; 0.044 µM in assay [2]; 0.054 µM in assay [4]; 0.037 µM in assay [5]; 0.009 µM in assay [6]. Also, in assay [3], the IC50 amounted to 0.00014 µM.
In the case of `CCc1ncnc(N2CCN(C(C)=O)CC2)c1C#Cc1cnc(C)c(NS(=O)(=O)c2ccc(F)cc2)c1` [Example I-68, N-{5-[4-(4-Acetyl-piperazin-1-yl)-6-ethyl-pyrimidin-5-ylethynyl]-2-methyl-pyridin-3-yl}-4-fluoro-benzenesulfonamide], the EC50 in assay [1] is 0.545 µM; in assay [2] it was 0.117 µM; in assay [4], 0.116 µM; in assay [5], 0.542 µM; in assay [6] it was 0.036 µM. In assay [3], the half-inhibitory concentration (IC50) came out at 0.00047 µM.
